Experimental findings from patent publication US11739078B2, “Methods of inhibiting kinases” (INSILICO MEDICINE IP LIMITED, priority 2019, dated 2023) are described below.

Like-named read-outs stand apart in the source and are kept apart here.

One test has as its target MAP4K4 (h) (Homo sapiens (Human), UniProt O95819). Nature of the test: MAP4K4 in vitro kinase assay (radiometric). It is filed as biochemical. Particulars: read-out: MAP4K4_IC50. The method, then:
(specific activity and concentration as required). The reaction is initiated by the addition of the Mg/ATP mix. After incubation for 40 minutes at room temperature, the reaction is stopped by the addition of phosphoric acid to a concentration of 0.5%.

The target in the next test is TNIK (Homo sapiens (Human), UniProt Q9UKE5). Put plainly: TNIK enzymatic assay (radiometric kinase inhibition). It is filed as biochemical. The method, then: The compounds were studied for function as TNIK inhibitors to generate the data of Table 1. […] (specific activity and concentration as required). The reaction is initiated by the addition of the Mg/ATP mix. After incubation for 40 minutes at room temperature, the reaction is stopped by the addition of phosphoric acid to a concentration of 0.5%.
Sequence of TNIK (Q9UKE5 whole entry): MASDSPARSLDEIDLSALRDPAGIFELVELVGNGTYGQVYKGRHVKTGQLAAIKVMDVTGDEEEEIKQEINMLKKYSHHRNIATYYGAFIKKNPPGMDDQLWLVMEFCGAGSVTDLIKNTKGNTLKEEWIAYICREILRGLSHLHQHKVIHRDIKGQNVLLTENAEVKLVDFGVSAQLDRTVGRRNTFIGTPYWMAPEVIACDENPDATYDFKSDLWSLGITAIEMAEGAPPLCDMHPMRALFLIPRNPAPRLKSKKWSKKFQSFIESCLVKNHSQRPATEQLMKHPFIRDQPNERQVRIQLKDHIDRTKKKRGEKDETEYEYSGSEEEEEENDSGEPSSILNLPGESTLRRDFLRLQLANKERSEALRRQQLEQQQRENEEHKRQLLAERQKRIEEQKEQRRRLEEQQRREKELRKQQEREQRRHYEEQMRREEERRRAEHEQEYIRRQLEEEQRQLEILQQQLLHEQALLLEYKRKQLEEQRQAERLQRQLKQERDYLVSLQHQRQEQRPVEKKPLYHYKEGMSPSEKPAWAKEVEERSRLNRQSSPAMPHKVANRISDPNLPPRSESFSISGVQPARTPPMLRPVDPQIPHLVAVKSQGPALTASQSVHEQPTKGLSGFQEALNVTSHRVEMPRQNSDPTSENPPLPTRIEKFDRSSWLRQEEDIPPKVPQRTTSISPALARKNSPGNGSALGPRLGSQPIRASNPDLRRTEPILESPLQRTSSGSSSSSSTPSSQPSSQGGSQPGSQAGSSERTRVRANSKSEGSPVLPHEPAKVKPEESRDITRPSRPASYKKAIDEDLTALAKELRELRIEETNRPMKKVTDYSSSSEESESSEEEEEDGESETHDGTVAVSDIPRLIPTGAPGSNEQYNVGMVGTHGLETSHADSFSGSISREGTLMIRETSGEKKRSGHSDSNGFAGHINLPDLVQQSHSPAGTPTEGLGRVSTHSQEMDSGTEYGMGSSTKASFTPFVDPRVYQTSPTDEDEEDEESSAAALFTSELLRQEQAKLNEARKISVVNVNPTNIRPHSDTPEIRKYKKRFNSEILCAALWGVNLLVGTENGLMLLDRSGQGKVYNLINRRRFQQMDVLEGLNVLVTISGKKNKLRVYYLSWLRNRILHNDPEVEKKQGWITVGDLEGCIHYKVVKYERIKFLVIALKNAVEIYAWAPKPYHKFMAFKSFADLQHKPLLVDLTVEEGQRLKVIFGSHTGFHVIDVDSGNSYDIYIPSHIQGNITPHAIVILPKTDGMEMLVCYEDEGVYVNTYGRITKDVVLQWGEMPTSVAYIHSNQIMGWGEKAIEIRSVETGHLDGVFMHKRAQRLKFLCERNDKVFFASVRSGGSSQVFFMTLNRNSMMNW

The mark [1] stands for this setting: TNIK enzymatic assay, Table 1, read-out: IC50.

Sequence of MAP4K4 (h) (O95819 whole entry): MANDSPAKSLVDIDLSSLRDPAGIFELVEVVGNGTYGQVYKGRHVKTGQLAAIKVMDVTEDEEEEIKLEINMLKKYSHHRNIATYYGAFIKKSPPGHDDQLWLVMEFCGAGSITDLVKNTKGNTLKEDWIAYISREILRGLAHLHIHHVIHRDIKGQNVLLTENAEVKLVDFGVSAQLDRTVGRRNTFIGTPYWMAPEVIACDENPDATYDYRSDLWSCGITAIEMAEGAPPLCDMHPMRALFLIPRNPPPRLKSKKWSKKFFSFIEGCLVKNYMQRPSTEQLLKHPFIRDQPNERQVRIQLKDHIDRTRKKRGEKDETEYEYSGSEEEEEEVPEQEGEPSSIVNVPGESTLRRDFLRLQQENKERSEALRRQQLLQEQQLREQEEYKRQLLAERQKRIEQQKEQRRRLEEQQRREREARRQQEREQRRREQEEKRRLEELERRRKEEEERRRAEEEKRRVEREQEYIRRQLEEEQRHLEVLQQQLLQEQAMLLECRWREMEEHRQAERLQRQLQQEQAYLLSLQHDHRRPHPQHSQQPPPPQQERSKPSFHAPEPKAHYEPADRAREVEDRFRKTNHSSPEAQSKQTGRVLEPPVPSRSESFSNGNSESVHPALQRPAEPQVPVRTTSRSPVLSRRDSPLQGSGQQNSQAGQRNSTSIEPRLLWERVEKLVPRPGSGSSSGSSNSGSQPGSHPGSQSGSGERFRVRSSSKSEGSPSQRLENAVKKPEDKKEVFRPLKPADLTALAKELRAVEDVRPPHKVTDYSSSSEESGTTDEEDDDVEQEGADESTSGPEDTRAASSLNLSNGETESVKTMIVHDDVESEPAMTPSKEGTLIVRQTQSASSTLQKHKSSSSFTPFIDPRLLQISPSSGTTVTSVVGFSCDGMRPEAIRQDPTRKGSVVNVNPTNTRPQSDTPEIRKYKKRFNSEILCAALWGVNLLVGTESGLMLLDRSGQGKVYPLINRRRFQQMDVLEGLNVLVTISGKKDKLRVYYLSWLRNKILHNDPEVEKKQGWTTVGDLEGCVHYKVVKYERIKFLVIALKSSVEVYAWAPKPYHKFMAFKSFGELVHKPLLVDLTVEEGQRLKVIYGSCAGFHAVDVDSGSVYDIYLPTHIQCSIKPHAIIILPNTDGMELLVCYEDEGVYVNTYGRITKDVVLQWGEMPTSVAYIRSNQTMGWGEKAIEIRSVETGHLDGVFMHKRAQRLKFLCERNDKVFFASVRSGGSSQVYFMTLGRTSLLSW

Consider `COc1ccc(NC(=O)c2ccc(-c3c(-c4ccc(F)cc4)ncn3C3CCCCC3)o2)cc1OC` [Compound 52, 5-(1-cyclohexyl-4-(4-fluorophenyl)-1H-imidazol-5-yl)-N-(3,4-dimethoxyphenyl)furan-2-carboxamide], for which the IC50 was determined as 104 nM on MAP4K4 (h), 60 nM on TNIK (setting [1]) and 60 nM on TNIK (read-out: TNIK_IC50).
With `O=C(Nc1cc(F)ccc1F)c1ccc(-c2c(-c3ccc(F)cc3)ncn2C2CCCC2)o1` [Compound 3, 5-(1-cyclopentyl-4-(4-fluorophenyl)-1H-imidazol-5-yl)-N-(2,5-difluorophenyl)furan-2-carboxamide], the IC50 at MAP4K4 (h) was 24.6 nM; on TNIK (setting [1]) it was < 10 nM; on TNIK (read-out: TNIK_IC50), 3.82 nM.
Taken in the same sequence, the figures for `COc1cc(NC(=O)c2ccc(-c3c(-c4ccc(C)cc4)ncn3C3CCCCC3)o2)cc(OC)c1` [Compound 6, 5-(1-cyclohexyl-4-(p-tolyl)-1H-imidazol-5-yl)-N-(3,5-dimethoxyphenyl)furan-2-carboxamide] were > 1000 nM, 9730 nM and 9730 nM.
As for `Cc1ccc(NC(=O)c2ccc(-c3c(-c4ccc(F)cc4)ncn3C3CCCC3)o2)c(C)c1` [Compound 32, 5-(1-cyclopentyl-4-(4-fluorophenyl)-1H-imidazol-5-yl)-N-(2,4-dimethylphenyl)furan-2-carboxamide], the results for the IC50 on MAP4K4 (h), on TNIK (setting [1]) and on TNIK (read-out: TNIK_IC50) were 96.9 nM, 12 nM and 12 nM, respectively.
On to `Cc1cccc(NC(=O)c2ccc(-c3c(-c4ccc(F)cc4)ncn3C3CCCC3)o2)c1C` [Compound 20, 5-(1-cyclopentyl-4-(4-fluorophenyl)-1H-imidazol-5-yl)-N-(2,3-dimethylphenyl)furan-2-carboxamide], for which the IC50 was found to be 129 nM on MAP4K4 (h), 136 nM on TNIK (setting [1]) and 136 nM at TNIK (read-out: TNIK_IC50).
On to `CC(C)c1ccc(NC(=O)c2ccc(-c3c(-c4ccc(F)cc4)ncn3C3CCCCC3)o2)cc1` [Compound 73, 5-(1-cyclohexyl-4-(4-fluorophenyl)-1H-imidazol-5-yl)-N-(4-isopropylphenyl)furan-2-carboxamide], for which the IC50 at MAP4K4 (h) worked out at 270 nM; on TNIK (setting [1]), 48 nM; on TNIK (read-out: TNIK_IC50) it was 48 nM.
With `O=C(Nc1ccc(Cl)cc1F)c1ccc(-c2c(-c3ccc(F)cc3)ncn2C2CCCC2)o1` [Compound 42, N-(4-chloro-2-fluorophenyl)-5-(1-cyclopentyl-4-(4-fluorophenyl)-1H-imidazol-5-yl)furan-2-carboxamide], the IC50 is 41.3 nM on MAP4K4 (h), 19 nM on TNIK (setting [1]) and 19 nM at TNIK (read-out: TNIK_IC50).
In the case of `O=C(Nc1ccc(F)c(F)c1)c1ccc(-c2c(-c3ccc(F)cc3)ncn2C2CCCC2)o1` [Compound 41, 5-(1-cyclopentyl-4-(4-fluorophenyl)-1H-imidazol-5-yl)-N-(3,4-difluorophenyl)furan-2-carboxamide], the IC50 at MAP4K4 (h) was found to be 639 nM; on TNIK (setting [1]), 180 nM; on TNIK (read-out: TNIK_IC50), 180 nM.
Turning to `CC(=O)Nc1ccc(NC(=O)c2ccc(-c3c(-c4ccc(F)cc4)ncn3C3CCCC3)o2)cc1` [Compound 46, N-(4-acetamidophenyl)-5-(1-cyclopentyl-4-(4-fluorophenyl)-1H-imidazol-5-yl)furan-2-carboxamide], the figures for the IC50 at MAP4K4 (h), on TNIK (setting [1]) and on TNIK (read-out: TNIK_IC50) were 30.9 nM, 24 nM and 24 nM, respectively.
As for `CCOc1ccc(NC(=O)c2ccc(-c3c(-c4ccc(F)cc4)ncn3C3CCCC3)o2)cc1` [Compound 28, 5-(1-cyclopentyl-4-(4-fluorophenyl)-1H-imidazol-5-yl)-N-(4-ethoxyphenyl)furan-2-carboxamide], the IC50 at MAP4K4 (h) amounted to 63.7 nM; at TNIK (setting [1]) it was 37 nM; on TNIK (read-out: TNIK_IC50) it was 37 nM.
Take `COc1ccc(NC(=O)c2ccc(-c3c(-c4ccc(C)cc4)ncn3C3CCCCC3)o2)cc1` [Compound 5, 5-(1-cyclohexyl-4-(p-tolyl)-1H-imidazol-5-yl)-N-(4-methoxyphenyl)furan-2-carboxamide]: the results for the IC50 on MAP4K4 (h), at TNIK (setting [1]) and on TNIK (read-out: TNIK_IC50) were > 1000 nM, 2410 nM and 2410 nM, respectively.
In the case of `CCc1cccc(NC(=O)c2ccc(-c3c(-c4ccc(F)cc4)ncn3C3CCCCC3)o2)c1` [Compound 74, 5-(1-cyclohexyl-4-(4-fluorophenyl)-1H-imidazol-5-yl)-N-(3-ethylphenyl)furan-2-carboxamide], the IC50 at MAP4K4 (h) worked out at 300 nM; at TNIK (setting [1]), 326 nM; at TNIK (read-out: TNIK_IC50), 326 nM.
For the compound `O=C(Nc1ccc(F)cc1F)c1ccc(-c2c(-c3ccc(F)cc3)ncn2C2CCCC2)o1` [Compound 1, 5-(1-cyclopentyl-4-(4-fluorophenyl)-1H-imidazol-5-yl)-N-(2,4-difluorophenyl)furan-2-carboxamide], the results for the IC50 at MAP4K4 (h), at TNIK (setting [1]) and on TNIK (read-out: TNIK_IC50) were 97.6 nM, 30 nM and 30 nM, respectively.
Turning to `COc1cccc(NC(=O)c2ccc(-c3c(-c4ccc(F)cc4)ncn3C3CCCCC3)o2)c1` [Compound 53, 5-(1-cyclohexyl-4-(4-fluorophenyl)-1H-imidazol-5-yl)-N-(3-methoxyphenyl)furan-2-carboxamide], the IC50 at MAP4K4 (h) worked out at 244 nM; on TNIK (setting [1]) it was 138 nM; on TNIK (read-out: TNIK_IC50), 138 nM.
As to `O=C(Nc1ccncc1F)c1ccc(-c2c(-c3ccc(F)cc3)ncn2CC2CCOC2)o1` (centres unmarked) [Compound A-36, 5-(4-(4-fluorophenyl)-1-((tetrahydrofuran-3-yl)methyl)-1H-imidazol-5-yl)-N-(3-fluoropyridin-4-yl)furan-2-carboxamide], the figures for the IC50 at MAP4K4 (h) and at TNIK (read-out: TNIK_IC50) were 161 nM and 83.2 nM, respectively.
`CSc1cccc(NC(=O)c2ccc(-c3c(-c4ccc(F)cc4)ncn3C3CCCCC3)o2)c1` [Compound 72, 5-(1-cyclohexyl-4-(4-fluorophenyl)-1H-imidazol-5-yl)-N-(3-(methylthio)phenyl)furan-2-carboxamide]: the IC50 at MAP4K4 (h) was found to be 638 nM; on TNIK (setting [1]), 238 nM; on TNIK (read-out: TNIK_IC50), 238 nM.
Consider `O=C(Nc1ccncn1)c1ccc(-c2c(-c3ccc(F)cc3)ncn2C2COCC2(F)F)o1` (centres unmarked) [Compound A-40, 5-(1-(4,4-difluorotetrahydrofuran-3-yl)-4-(4-fluorophenyl)-1H-imidazol-5-yl)-N-(pyrimidin-4-yl)furan-2-carboxamide], for which the IC50 at MAP4K4 (h) came to 50.5 nM; at TNIK (read-out: TNIK_IC50), 26.3 nM.
Take `CCc1cccc(NC(=O)c2ccc(-c3c(-c4ccc(F)cc4)ncn3C3CCCC3)o2)c1` [Compound 39, 5-(1-cyclopentyl-4-(4-fluorophenyl)-1H-imidazol-5-yl)-N-(3-ethylphenyl)furan-2-carboxamide]: the IC50 is > 1000 nM on MAP4K4 (h), 480 nM at TNIK (setting [1]) and 480 nM on TNIK (read-out: TNIK_IC50).
As for `COc1cc(NC(=O)c2ccc(-c3c(-c4ccc(F)cc4)ncn3C3CCCC3)o2)cc(OC)c1` [Compound 19, 5-(1-cyclopentyl-4-(4-fluorophenyl)-1H-imidazol-5-yl)-N-(3,5-dimethoxyphenyl)furan-2-carboxamide], the IC50 stood at 204 nM at MAP4K4 (h), 231 nM on TNIK (setting [1]) and 231 nM at TNIK (read-out: TNIK_IC50).
`Cc1cc(C)c(NC(=O)c2ccc(-c3c(-c4ccc(F)cc4)ncn3C3CCCCC3)o2)c(C)c1` [Compound 70, 5-(1-cyclohexyl-4-(4-fluorophenyl)-1H-imidazol-5-yl)-N-mesitylfuran-2-carboxamide]: the IC50 at MAP4K4 (h) was > 1000 nM; on TNIK (setting [1]), 936 nM; on TNIK (read-out: TNIK_IC50) it was 936 nM.
For the compound `COc1cnccc1NC(=O)c1ccc(-c2c(-c3ccc(F)cc3)ncn2C2CCOC2)o1` (centres unmarked) [Compound A-38, 5-(4-(4-fluorophenyl)-1-(tetrahydrofuran-3-yl)-1H-imidazol-5-yl)-N-(3-methoxypyridin-4-yl)furan-2-carboxamide], the IC50 was < 10 nM at MAP4K4 (h) and 4.21 nM at TNIK (read-out: TNIK_IC50).
Regarding `O=C(Nc1ccc(F)cc1F)c1ccc(-c2c(-c3ccc(F)cc3)ncn2C2CCCCC2)o1` [Compound 57, 5-(1-cyclohexyl-4-(4-fluorophenyl)-1H-imidazol-5-yl)-N-(2,4-difluorophenyl)furan-2-carboxamide], the figures for the IC50 on MAP4K4 (h), on TNIK (setting [1]) and on TNIK (read-out: TNIK_IC50) were 111 nM, 38 nM and 38 nM, respectively.
Regarding `O=C(Nc1ccc(F)cc1)c1ccc(-c2c(-c3ccc(F)cc3)ncn2C2CCCC2)o1` [Compound 26, 5-(1-cyclopentyl-4-(4-fluorophenyl)-1H-imidazol-5-yl)-N-(4-fluorophenyl)furan-2-carboxamide], the IC50 on MAP4K4 (h) turned out to be 97.9 nM; at TNIK (setting [1]) it was 55 nM; on TNIK (read-out: TNIK_IC50), 55 nM.
As to `O=C(Nc1ccc(-c2c(-c3ccc(F)cc3)ncn2C2CCCC2)o1)c1ccccc1F` [Compound 95, N-(5-(1-cyclopentyl-4-(4-fluorophenyl)-1H-imidazol-5-yl)furan-2-yl)-2-fluorobenzamide], the IC50 was found to be 547 nM on MAP4K4 (h) and 480 nM on TNIK (read-out: TNIK_IC50).
Turning to `COc1cc(NC(=O)c2ccc(-c3c(-c4ccc(F)cc4)ncn3C3CCCCC3)o2)cc(OC)c1` [Compound 58, 5-(1-cyclohexyl-4-(4-fluorophenyl)-1H-imidazol-5-yl)-N-(3,5-dimethoxyphenyl)furan-2-carboxamide], the results for the IC50 at MAP4K4 (h), on TNIK (setting [1]) and at TNIK (read-out: TNIK_IC50) were 581 nM, 275 nM and 275 nM, respectively.
As to `Cc1cccc(NC(=O)c2ccc(-c3c(-c4ccc(F)cc4)ncn3C3CCCCC3)o2)c1C` [Compound 59, 5-(1-cyclohexyl-4-(4-fluorophenyl)-1H-imidazol-5-yl)-N-(2,3-dimethylphenyl)furan-2-carboxamide], the IC50 at MAP4K4 (h) is > 1000 nM; on TNIK (setting [1]), 562 nM; on TNIK (read-out: TNIK_IC50) it was 562 nM.
As for `O=C(Nc1ccc(F)c(F)c1)c1ccc(-c2c(-c3ccc(F)cc3)ncn2C2CCCCC2)o1` [Compound 75, 5-(1-cyclohexyl-4-(4-fluorophenyl)-1H-imidazol-5-yl)-N-(3,4-difluorophenyl)furan-2-carboxamide], the figures for the IC50 on MAP4K4 (h), on TNIK (setting [1]) and at TNIK (read-out: TNIK_IC50) were 431 nM, 191 nM and 191 nM, respectively.
